# Assay results as given in ChEMBL document CHEMBL4184267, “Novel naftopidil derivatives containing methyl phenylacetate and their blocking effects on α1D/1A-adrenoreceptor subtypes” (Bioorg Med Chem Lett, 2018).
# Key:
# Thoracic aorta [1] = assay: Vasodilatory activity in New Zealand White rabbit thoracic aorta assessed as relaxation of (-)-noradrenaline-induced contractile response at 0.1 uM relative to untreated control; type: functional, Oryctolagus cuniculus; design: scale not given: the % may be the effect or the level left
# Thoracic aorta [2] = assay: Vasodilatory activity in New Zealand White rabbit thoracic aorta assessed as relaxation of (-)-noradrenaline-induced contractile response at 1 uM relative to untreated control; type: functional, Oryctolagus cuniculus; design: scale not given: the % may be the effect or the level left
# Thoracic aorta [3] = assay: Vasodilatory activity in New Zealand White rabbit thoracic aorta assessed as relaxation of (-)-noradrenaline-induced contractile response at 10 uM relative to untreated control; type: functional, Oryctolagus cuniculus; design: scale not given: the % may be the effect or the level left
# [4] = molecular target: T1, Alpha-1A adrenergic receptor (Rattus norvegicus, UniProt P43140); assay: Antagonist activity at alpha1A-adrenoreceptor in Sprague-Dawley rat vas deferens assessed as relaxation of (-)-noradrenaline-induced contractile response; type: functional; conditions: read-out: pA2 (converted)
# T1 sequence (P43140 whole entry): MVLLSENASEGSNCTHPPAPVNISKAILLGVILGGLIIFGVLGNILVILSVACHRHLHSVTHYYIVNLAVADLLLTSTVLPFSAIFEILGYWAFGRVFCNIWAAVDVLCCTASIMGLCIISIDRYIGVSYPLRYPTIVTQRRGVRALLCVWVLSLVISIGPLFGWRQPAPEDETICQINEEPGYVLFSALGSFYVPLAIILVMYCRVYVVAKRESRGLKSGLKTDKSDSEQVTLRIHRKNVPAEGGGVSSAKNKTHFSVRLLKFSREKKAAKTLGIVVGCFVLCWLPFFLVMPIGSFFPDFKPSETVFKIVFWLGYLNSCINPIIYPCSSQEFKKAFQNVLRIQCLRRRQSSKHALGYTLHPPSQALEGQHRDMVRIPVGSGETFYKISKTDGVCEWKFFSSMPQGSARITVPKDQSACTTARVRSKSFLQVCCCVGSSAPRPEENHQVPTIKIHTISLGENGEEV
# [5] = molecular target: T2, Alpha-1B adrenergic receptor (Rattus norvegicus, UniProt P15823); assay: Antagonist activity at alpha1B-adrenoreceptor in Sprague-Dawley rat spleen assessed as relaxation of (-)-noradrenaline-induced contractile response; type: functional; conditions: read-out: pA2 (converted)
# T2 sequence (P15823 whole entry): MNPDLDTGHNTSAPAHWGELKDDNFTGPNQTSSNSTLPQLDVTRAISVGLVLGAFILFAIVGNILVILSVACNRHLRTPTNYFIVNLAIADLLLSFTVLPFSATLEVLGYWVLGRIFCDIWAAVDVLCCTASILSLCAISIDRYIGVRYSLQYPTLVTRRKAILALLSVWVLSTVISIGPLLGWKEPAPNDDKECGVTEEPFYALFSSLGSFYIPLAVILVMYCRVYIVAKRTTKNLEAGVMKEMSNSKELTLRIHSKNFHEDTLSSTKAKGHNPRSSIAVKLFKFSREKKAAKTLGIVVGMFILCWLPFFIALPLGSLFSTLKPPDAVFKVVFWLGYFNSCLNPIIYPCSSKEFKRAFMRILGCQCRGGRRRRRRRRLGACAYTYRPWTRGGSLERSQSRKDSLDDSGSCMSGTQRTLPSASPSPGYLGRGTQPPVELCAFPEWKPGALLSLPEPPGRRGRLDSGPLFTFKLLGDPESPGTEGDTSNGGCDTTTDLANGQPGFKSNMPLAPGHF
# [6] = molecular target: T3, Alpha-1D adrenergic receptor (Rattus norvegicus, UniProt P23944); assay: Antagonist activity at alpha1D-adrenoreceptor in Sprague-Dawley rat thoracic aorta assessed as relaxation of (-)-noradrenaline-induced contractile response; type: functional; conditions: read-out: pA2 (converted)
# T3 sequence (P23944 whole entry): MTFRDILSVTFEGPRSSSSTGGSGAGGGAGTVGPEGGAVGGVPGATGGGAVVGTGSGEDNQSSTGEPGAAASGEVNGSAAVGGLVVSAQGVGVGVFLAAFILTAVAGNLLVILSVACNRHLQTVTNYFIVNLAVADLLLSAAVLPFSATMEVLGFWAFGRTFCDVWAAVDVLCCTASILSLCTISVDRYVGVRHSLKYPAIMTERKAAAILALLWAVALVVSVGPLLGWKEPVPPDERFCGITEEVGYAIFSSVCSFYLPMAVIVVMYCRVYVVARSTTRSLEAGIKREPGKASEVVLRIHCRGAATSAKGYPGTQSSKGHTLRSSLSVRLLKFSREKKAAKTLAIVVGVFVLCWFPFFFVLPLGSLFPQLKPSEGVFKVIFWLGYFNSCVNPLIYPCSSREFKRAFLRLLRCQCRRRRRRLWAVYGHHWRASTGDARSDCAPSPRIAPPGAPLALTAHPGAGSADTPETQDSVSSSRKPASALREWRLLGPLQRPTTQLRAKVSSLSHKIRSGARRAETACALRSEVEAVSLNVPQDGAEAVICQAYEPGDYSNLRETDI
# [7] = molecular target: T4, Alpha-1B adrenergic receptor (Homo sapiens, UniProt P35368); assay: Displacement of [125I-HEAT from human alpha1B-adrenoreceptor expressed in CHOK1 cell membranes incubated for 60 mins
# T4 sequence (P35368 whole entry): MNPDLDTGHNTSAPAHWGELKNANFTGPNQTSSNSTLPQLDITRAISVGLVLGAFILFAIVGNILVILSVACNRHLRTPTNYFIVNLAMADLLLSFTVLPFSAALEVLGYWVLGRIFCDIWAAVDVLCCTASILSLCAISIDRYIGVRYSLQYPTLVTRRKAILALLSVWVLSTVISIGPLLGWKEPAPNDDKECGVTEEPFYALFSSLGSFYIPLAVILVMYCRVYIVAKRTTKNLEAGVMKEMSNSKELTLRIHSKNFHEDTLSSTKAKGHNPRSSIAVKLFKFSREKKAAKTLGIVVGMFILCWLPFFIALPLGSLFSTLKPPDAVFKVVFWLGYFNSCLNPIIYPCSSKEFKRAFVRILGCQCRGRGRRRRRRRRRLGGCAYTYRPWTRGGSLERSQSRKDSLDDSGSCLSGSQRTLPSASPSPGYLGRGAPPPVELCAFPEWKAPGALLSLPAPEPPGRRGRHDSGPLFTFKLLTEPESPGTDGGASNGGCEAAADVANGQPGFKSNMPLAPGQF
# [8] = molecular target: T5, Alpha-1D adrenergic receptor (Homo sapiens, UniProt P25100); assay: Displacement of [125I-HEAT from human alpha1D-adrenoreceptor expressed in CHOK1 cell membranes incubated for 60 mins
# T5 sequence (P25100 whole entry): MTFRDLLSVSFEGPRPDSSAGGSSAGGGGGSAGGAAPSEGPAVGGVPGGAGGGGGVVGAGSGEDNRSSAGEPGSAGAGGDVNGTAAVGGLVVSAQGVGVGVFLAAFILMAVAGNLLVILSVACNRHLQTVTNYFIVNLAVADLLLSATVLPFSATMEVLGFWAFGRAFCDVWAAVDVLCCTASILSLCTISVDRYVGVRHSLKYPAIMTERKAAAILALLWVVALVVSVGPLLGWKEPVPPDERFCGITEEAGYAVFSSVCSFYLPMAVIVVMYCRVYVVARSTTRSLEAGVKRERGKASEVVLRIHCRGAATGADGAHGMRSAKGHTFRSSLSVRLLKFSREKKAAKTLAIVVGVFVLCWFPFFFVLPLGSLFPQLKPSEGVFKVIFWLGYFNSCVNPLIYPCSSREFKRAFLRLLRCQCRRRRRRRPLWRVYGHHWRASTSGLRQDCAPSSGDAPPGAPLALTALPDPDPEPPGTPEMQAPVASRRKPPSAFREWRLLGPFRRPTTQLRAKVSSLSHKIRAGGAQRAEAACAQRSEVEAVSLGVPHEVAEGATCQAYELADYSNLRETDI
Kb [4],Kb [5],Kb [6],Ki [7],Ki [8],Structure (SMILES),Activity (Thoracic aorta [1]),Activity (Thoracic aorta [2]),Activity (Thoracic aorta [3])
–,–,–,–,–,COC(=O)Cc1ccc(OCC(O)CN2CCN(c3cc(Cl)c(OC)cc3OC)CC2)cc1 (stereo not drawn),8.2%,20.4%,46.1%
490 nM,324 nM,20 nM,–,–,COC(=O)Cc1ccc(OCC(O)CN2CCN(c3ccccc3C)CC2)cc1 (stereo not drawn),27.3%,62.3%,99.3%
–,–,–,–,–,COC(=O)Cc1ccc(OCC(O)CN2CCN(c3ccc(Br)cc3)CC2)cc1 (stereo not drawn),7.9%,16.6%,43.5%
–,–,–,–,–,COC(=O)Cc1ccc(OCC(O)CN2CCN(c3ccc(OC)cc3)CC2)cc1 (stereo not drawn),6.3%,7%,15.8%
30.2 nM,269 nM,15.5 nM,–,–,COC(=O)Cc1ccc(OC[C@@H](O)CN2CCN(c3cc(C)ccc3C)CC2)cc1,–,–,–
–,–,–,–,–,COC(=O)Cc1ccc(OCC(O)CN2CCN(c3cccc(OC)c3)CC2)cc1 (stereo not drawn),13%,23.7%,39.8%
–,–,–,–,–,COC(=O)Cc1ccc(OCC(O)CN2CCN(c3ccc(C)c(C)c3)CC2)cc1 (stereo not drawn),8.9%,28.4%,70.2%
–,–,–,–,–,COC(=O)Cc1ccc(OCC(O)CN2CCN(c3ccc(C)cc3)CC2)cc1 (stereo not drawn),15.3%,28.7%,56.7%
–,–,–,20 nM,1.2 nM,COc1ccccc1N1CCN(CC(O)COc2cccc3ccccc23)CC1 (stereo not drawn) [NAFTOPIDIL],25.1%,86.9%,97.8%
–,–,–,–,–,CCOc1cccc(N2CCN(CC(O)COc3ccc(CC(=O)OC)cc3)CC2)c1 (stereo not drawn),6.1%,10.2%,14.9%
–,–,–,–,–,COC(=O)Cc1ccc(OCC(O)CN2CCN(c3cc(C)cc(C)c3)CC2)cc1 (stereo not drawn),5.8%,18.6%,61.4%
63.1 nM,447 nM,38 nM,–,–,COC(=O)Cc1ccc(OC[C@H](O)CN2CCN(c3cc(C)ccc3C)CC2)cc1,–,–,–
38.9 nM,759 nM,44.7 nM,–,–,COC(=O)Cc1ccc(OCC(O)CN2CCN(c3cc(C)ccc3C)CC2)cc1 (stereo not drawn),24.3%,66.2%,100%
–,–,–,–,–,COC(=O)Cc1ccc(OCC(O)CN2CCN(c3ccc(C)cc3C)CC2)cc1 (stereo not drawn),13.7%,43.3%,92.7%
148 nM,603 nM,77.6 nM,–,–,COC(=O)Cc1ccc(OCC(O)CN2CCN(c3ccccc3OC)CC2)cc1 (stereo not drawn),27.6%,71.1%,100%
–,–,–,–,–,COC(=O)Cc1ccc(OCC(O)CN2CCN(c3ccccc3Cl)CC2)cc1 (stereo not drawn),29%,58.7%,98.3%
–,–,–,–,–,COC(=O)Cc1ccc(OCC(O)CN2CCN(c3cccc(C)c3C)CC2)cc1 (stereo not drawn),12.5%,43.3%,81.7%
–,–,–,–,–,COC(=O)Cc1ccc(OCC(O)CN2CCN(c3cccc(C)c3)CC2)cc1 (stereo not drawn),14.8%,36.9%,63.5%
–,–,–,–,–,COC(=O)Cc1ccc(OCC(O)CN2CCN(c3ccc(C)c(Cl)c3)CC2)cc1 (stereo not drawn),19.5%,25.9%,38.7%
